Source: publication PMC9977294, “A parasitic fungus employs mutated eIF4A to survive on rocaglate-synthesizing Aglaia plants” (eLife, 2023)
Values joined by “and” are separate entries in the source; they are usually repeats but may differ in a detail not shown here. Identical values can stand only once. Like-named read-outs stand apart in the source and are kept apart here.

Assays:
[1] = tested on: Ophiocordyceps sp. BRM1 eIF4A iso4 WT Gly172; assay: Fluorescence polarization assay, FAM-labeled [AG]10 RNA and recombinant eIF4A; assay type: binding; details: for Fluorescence polarization, Replicate 1-3 / fluorescence polarization, Mean: [AG]10 RNA, AMP-PNP, RocA
Experimental: (§1) The fluorescence polarization assay was performed as previously described ([Chen et al., 2021]). […] After incubation at room temperature for 30 min, the mixture was transferred to a black 384-well microplate (Corning), and the fluorescence polarization was measured by an Infinite F-200 PRO (Tecan). Under ADP + Pi conditions, 1 mM ADP (Fujifilm Wako Chemicals) and 1 mM Na2HPO4 were used as substitutes for AMP-PNP. The data were fitted to the Hill equation to calculate Kd values and visualized by Igor Pro v8.01 (WaveMetrics).

[2] = target: Ophiocordyceps sp. BRM1 eIF4A iso4 Gly172Phe; assay: as above; assay type: binding; details: for Kd: [AG]10 10 nM, compound 50 µM, read-out: Kd between eIF4A protein and RNA
Experimental: as §1

[3] = tested on: Ophiocordyceps sp. BRM1 eIF4A Gly172His; assay: In vitro translation in RRL with complex-preformed mRNAs; assay type: biochemical; details: reporter mRNA with polypurine motifs preincubated with eIF4A and 9.1 µM RocA, free RocA removed; Figure 3B
Experimental: (§2) The DNA fragments PCR-amplified from psiCHECK2−7×AGAGAG motifs or psiCHECK2-CAA repeats ([Iwasaki et al., 2016]) were used as a template for in vitro transcription with a T7-Scribe Standard RNA IVT Kit ([…]). RNA was capped and poly(A) tailed with a ScriptCap m^7G Capping System, a ScriptCap 2′-O-Methyltransferase Kit, and an A-Plus Poly(A) Polymerase Tailing Kit ([…]).
(§3) Then, 4 µl of complex-preformed mRNA was incubated with 50% RRL (Promega) in a 10 µl reaction volume for 1 hr at 30°C, according to the manufacturer’s instructions. The fluorescence signal was detected using the Renilla-Glo Luciferase Assay System (Promega) and measured with the GloMax Navigator System (Promega). In the control experiments, instead of recombinant eIF4A proteins, storage buffer was used. Moreover, recombinant eIF4A proteins were added to the G-25 flowthrough solution in place of the storage buffer.

[4] = tested on: Ophiocordyceps sp. BRM1 eIF4A WT; assay: as above; assay type: biochemical; details: reporter mRNA with polypurine motifs preincubated with eIF4A and 9.1 µM RocA, free RocA removed; Figure 3B
Experimental: as §2, §3

[5] = [AG]10, ADP + Pi, RocA 50 µM, protein 50 μM
[6] = [AG]10, ADP + Pi, RocA 50 µM, protein 0.01 μM
[7] = [AG]10, ADP + Pi, RocA 50 µM, protein 0.05 μM
[8] = [AG]10, ADP + Pi, RocA 50 µM, protein 0.075 μM
[9] = [AG]10, ADP + Pi, RocA 50 µM, protein 0.1 μM
[10] = [AG]10, ADP + Pi, RocA 50 µM, protein 0.5 μM
[11] = [AG]10, ADP + Pi, RocA 50 µM, protein 0.75 μM
[12] = [AG]10, ADP + Pi, RocA 50 µM, protein 1 μM
[13] = [AG]10, ADP + Pi, RocA 50 µM, protein 5 μM
[14] = [AG]10, ADP + Pi, RocA 50 µM, protein 7.5 μM
[15] = [AG]10, ADP + Pi, RocA 50 µM, protein 10 μM
[16] = [AG]10, ADP + Pi, RocA 50 µM, protein 25 μM
[17] = [AG]10 RNA, AMP-PNP, RocA, protein concentration 0.01 μM
[18] = [AG]10 RNA, AMP-PNP, RocA, protein concentration 0.05 μM
[19] = [AG]10 RNA, AMP-PNP, RocA, protein concentration 0.075 μM
[20] = [AG]10 RNA, AMP-PNP, RocA, protein concentration 0.75 μM
[21] = [AG]10 RNA, AMP-PNP, RocA, protein concentration 5 μM
[22] = [AG]10 RNA, AMP-PNP, RocA, protein concentration 7.5 μM
[23] = [AG]10 RNA, AMP-PNP, RocA, protein concentration 10 μM
[24] = [AG]10 RNA, AMP-PNP, RocA, protein concentration 25 μM
[25] = [AG]10 RNA, AMP-PNP, RocA, protein concentration 50 μM

With `COc1ccc([C@@]23Oc4cc(OC)cc(OC)c4[C@]2(O)[C@H](O)[C@H](C(=O)N(C)C)[C@H]3c2ccccc2)cc1` [RocA, rocaglamide A] the “fluorescence polarization, replicates” value [1, 5] was 0.4208 and 0.429, the “Fluorescence polarization, Replicate 1-3” value ([1]; protein concentration 0.01 μM) was -0.2186 and -0.2022 and -0.2268 and the “fluorescence polarization, Mean” value ([1]; protein concentration 0.01 μM) was -0.2158. For the same compound, the “Fluorescence polarization, Replicate 1-3” value ([1]; protein concentration 0.05 μM) was 0.2732 and -0.005465 and -0.2268, the “fluorescence polarization, Mean” value ([1]; protein concentration 0.05 μM) was 0.01366 and the “Fluorescence polarization, Replicate 1-3” value ([1]; protein concentration 0.075 μM) was -0.112 and -0.04645 and -0.2104. The “fluorescence polarization, Mean” value ([1]; protein concentration 0.075 μM) was -0.123, the “Fluorescence polarization, Replicate 1-3” value ([1]; protein concentration 0.1 μM) was 0.3224 and -0.194 and -0.1612 and the “fluorescence polarization, Mean” value ([1]; protein concentration 0.1 μM) was -0.01093. For the same compound, the “Fluorescence polarization, Replicate 1-3” value ([1]; protein concentration 0.5 μM) was 0.2896, the “fluorescence polarization, Mean” value ([1]; protein concentration 0.5 μM) was 0.2896 and the “Fluorescence polarization, Replicate 1-3” value ([1]; protein concentration 0.75 μM) was 0.4699 and 0.2732 and 0.1585. For the same compound, the “fluorescence polarization, Mean” value ([1]; protein concentration 0.75 μM) was 0.3005, the “Fluorescence polarization, Replicate 1-3” value ([1]; protein concentration 1 μM) was 0.4617 and 0.347 and 0.3306 and the “fluorescence polarization, Mean” value ([1]; protein concentration 1 μM) was 0.3798. For the same compound, the “Fluorescence polarization, Replicate 1-3” value ([1]; protein concentration 5 μM) was 0.5683 and 0.3962 and 0.429, the “fluorescence polarization, Mean” value ([1]; protein concentration 5 μM) was 0.4645 and the “Fluorescence polarization, Replicate 1-3” value ([1]; protein concentration 7.5 μM) was 0.5765 and 0.4372 and 0.4044. The “fluorescence polarization, Mean” value ([1]; protein concentration 7.5 μM) was 0.4727, the “Fluorescence polarization, Replicate 1-3” value ([1]; protein concentration 10 μM) was 0.4372 and 0.3962 and 0.3224 and the “fluorescence polarization, Mean” value ([1]; protein concentration 10 μM) was 0.3852. For the same compound, the “Fluorescence polarization, Replicate 1-3” value ([1]; protein concentration 25 μM) was 0.6585 and 0.4372 and 0.4617, the “fluorescence polarization, Mean” value ([1]; protein concentration 25 μM) was 0.5191 and the “Fluorescence polarization, Replicate 1-3” value ([1]; protein concentration 50 μM) was 0.5929 and 0.4863 and 0.4699. For the same compound, the “fluorescence polarization, Mean” value ([1]; protein concentration 50 μM) was 0.5164, the Kd ([2]; ADP + Pi (1 mM each)) was 270 ± 50 nM and the Kd ([2]; AMP-PNP 1 mM) was 53 ± 23 nM. For the same compound, the “fluorescence polarization, Mean” value [2, 6] was -0.0929, the “fluorescence polarization, replicates” value [2, 6] was -0.1366 and the “fluorescence polarization, Mean” value [2, 7] was -0.112. The “fluorescence polarization, replicates” value [2, 7] was -0.1366, the “fluorescence polarization, Mean” value [2, 8] was -0.05465 and the “fluorescence polarization, replicates” value [2, 8] was -0.005465. For the same compound, the “fluorescence polarization, Mean” value [2, 9] was 0.05191, the “fluorescence polarization, replicates” value [2, 9] was 0.0929 and 0.002732 and the “fluorescence polarization, Mean” value [2, 10] was 0.3142. The “fluorescence polarization, replicates” value [2, 10] was 0.3142 and 0.2486, the “fluorescence polarization, Mean” value [2, 11] was 0.3661 and the “fluorescence polarization, replicates” value [2, 11] was 0.429 and 0.306. The “fluorescence polarization, Mean” value [2, 12] was 0.4044, the “fluorescence polarization, replicates” value [2, 12] was 0.3552 and 0.429 (2×) and the “fluorescence polarization, Mean” value [2, 13] was 0.4399. For the same compound, the “fluorescence polarization, replicates” value [2, 13] was 0.4781 and 0.4208 (2×), the “fluorescence polarization, Mean” value [2, 14] was 0.5328 and the “fluorescence polarization, replicates” value [2, 14] was 0.5519 and 0.5027. The “fluorescence polarization, Mean” value [2, 15] was 0.5055, the “fluorescence polarization, replicates” value [2, 15] was 0.4372 and 0.5109 and 0.5683 and the “fluorescence polarization, Mean” value [2, 16] was 0.5301. For the same compound, the “fluorescence polarization, replicates” value [2, 16] was 0.4863, the “fluorescence polarization, Mean” value [2, 5] was 0.5273 and the “fluorescence polarization, replicates” value [2, 5] was 0.5765 and 0.5519 and 0.4536. The “Fluorescence polarization, Replicate 1-3” value [2, 17] was 0.3525 and 0.2213 and 0.04098, the “fluorescence polarization, Mean” value [2, 17] was 0.2049 and the “Fluorescence polarization, Replicate 1-3” value [2, 18] was 0.3852 and 0.2951 and 0.2787. The “fluorescence polarization, Mean” value [2, 18] was 0.3197, the “Fluorescence polarization, Replicate 1-3” value [2, 19] was 0.3197 and 0.3607 and 0.3361 and the “fluorescence polarization, Mean” value [2, 19] was 0.3388. For the same compound, the “Fluorescence polarization, Replicate 1-3” value ([2]; [AG]10 RNA, AMP-PNP, RocA, protein concentration 0.5 μM) was 0.8689 and 0.8197, the “Fluorescence polarization, Replicate 1-3” value [2, 20] was 0.8115 and 0.7295 and the “fluorescence polarization, Mean” value [2, 20] was 0.7514. For the same compound, the “Fluorescence polarization, Replicate 1-3” value ([2]; [AG]10 RNA, AMP-PNP, RocA, protein concentration 1 μM) was 0.8279 and 0.8934, the “Fluorescence polarization, Replicate 1-3” value [2, 21] was 0.8197 and 0.877 and the “fluorescence polarization, Mean” value [2, 21] was 0.8661. The “Fluorescence polarization, Replicate 1-3” value [2, 22] was 0.9262 and 0.8361 and 0.8525, the “fluorescence polarization, Mean” value [2, 22] was 0.8716 and the “Fluorescence polarization, Replicate 1-3” value [2, 23] was 0.8689 and 0.8525 and 0.8033. The “fluorescence polarization, Mean” value [2, 23] was 0.8415, the “Fluorescence polarization, Replicate 1-3” value [2, 24] was 0.8607 and 0.9262 and 0.877 and the “fluorescence polarization, Mean” value [2, 24] was 0.888. The “Fluorescence polarization, Replicate 1-3” value [2, 25] was 0.9344 and 0.9672 and 0.9098, the “fluorescence polarization, Mean” value [2, 25] was 0.9372 and the “translation of complex-preformed mRNA in RRL” value [3] was “could act as a translation repressor”. For the same compound, the “translation of complex-preformed mRNA in RRL” value [4] was “could not alter translation”.
